Measured values as given in ChEMBL document CHEMBL3352679, “Structure and evaluation of antibacterial and antitubercular properties of new basic and heterocyclic 3-formylrifamycin SV derivatives obtained via 'click chemistry' approach” (Eur J Med Chem, 2014).
≈ marks a conversion by molar mass, not a printed value.

Columns and labels:
[1] = tested on: Staphylococcus aureus; assay: Antibacterial activity against Staphylococcus aureus ATCC 6538 after 18 hrs by serial microdilution method; assay type: functional; details: ATCC 6538, 18 h
[2] = tested on: Trichophyton rubrum; assay: Antifungal activity against Trichophyton rubrum ATCC 28188 after 18 hrs by serial microdilution method; assay type: functional; details: ATCC 28188, 18 h
[3] = tested on: Staphylococcus aureus; assay: Antibacterial activity against Staphylococcus aureus ATCC 4163 after 18 hrs by serial microdilution method; assay type: functional; details: ATCC 4163, 18 h
[4] = tested on: Enterococcus faecalis; assay: Antibacterial activity against Enterococcus faecalis ATCC 19433 after 18 hrs by serial microdilution method; assay type: functional; details: ATCC 19433, 18 h
[5] = tested on: Staphylococcus epidermidis; assay: Antibacterial activity against Staphylococcus epidermidis ATCC 12228 after 18 hrs by serial microdilution method; assay type: functional; details: ATCC 12228, 18 h
[6] = tested on: Staphylococcus epidermidis; assay: Antibacterial activity against Staphylococcus epidermidis ATCC 49134 after 18 hrs by serial microdilution method; assay type: functional; details: ATCC 49134, 18 h
[7] = tested on: Staphylococcus aureus; assay: Antibacterial activity against Staphylococcus aureus ATCC 25923 after 18 hrs by serial microdilution method; assay type: functional; details: ATCC 25923, 18 h
[8] = tested on: Candida albicans; assay: Antifungal activity against Candida albicans ATCC 10231 after 18 hrs by serial microdilution method; assay type: functional; details: ATCC 10231, 18 h
[9] = Solubility in water at pH 7 and 25 degC by UV-vis spectrophotometry; assay type: physicochemical
[10] = tested on: Escherichia coli; assay: Antibacterial activity against Escherichia coli ATCC 10538 after 18 hrs by serial microdilution method; assay type: functional; details: ATCC 10538, 18 h
[11] = tested on: Salmonella enterica subsp. enterica serovar Abony; assay: Antibacterial activity against Salmonella abony NCTC 6017 after 18 hrs by serial microdilution method; assay type: functional; details: NCTC 6017, 18 h
[12] = tested on: Mycobacterium tuberculosis; assay: Antituberculosis activity against Mycobacterium tuberculosis H37Rv after 7 days by serial two fold dilution method; assay type: functional; details: 168 h
[13] = Octanol-water partition coefficient, log P of the compound; assay type: physicochemical

Row | Structure (SMILES) | MIC [1] | MIC [2] | MIC [3] | MIC [4] | MIC [5] | MIC [6] | MIC [7] | MIC [8] | solubility [9] | MIC [10] | MIC [11] | MIC [12] | logP [13]
1 | CCCc1cn(CCNCc2c3c(O)c4c(O)c(C)c5c(c4c2O)C(=O)[C@@](C)(O/C=C/[C@H](OC)[C@@H](C)[C@@H](OC(C)=O)[C@H](C)[C@H](O)[C@H](C)[C@@H](O)[C@@H](C)/C=C/C=C(/C)C(=O)N3)O5)nn1 | 1 µg/mL (≈ 1.16 µM) | > 1 µg/mL | 1 µg/mL (≈ 1.16 µM) | > 1 µg/mL | 0.5 µg/mL (≈ 0.579 µM) | 0.5 µg/mL (≈ 0.579 µM) | > 1 µg/mL | > 1 µg/mL | < 10 µg/mL | > 1 µg/mL | > 1 µg/mL | 1 µg/mL (≈ 1.16 µM) | 2.14
2 | CO[C@H]1/C=C/O[C@@]2(C)Oc3c(C)c(O)c4c(O)c(c(CNCCN5CCCC5)c(O)c4c3C2=O)NC(=O)/C(C)=C\C=C\[C@H](C)[C@H](O)[C@@H](C)[C@@H](O)[C@@H](C)[C@H](OC(C)=O)[C@@H]1C | 1 µg/mL (≈ 1.21 µM) | 1 µg/mL (≈ 1.21 µM) | 1 µg/mL (≈ 1.21 µM) | 1 µg/mL (≈ 1.21 µM) | 0.5 µg/mL (≈ 0.607 µM) | 0.5 µg/mL (≈ 0.607 µM) | 1 µg/mL (≈ 1.21 µM) | 1 µg/mL (≈ 1.21 µM) | 240 µg/mL (≈ 291 µM) | 1 µg/mL (≈ 1.21 µM) | 1 µg/mL (≈ 1.21 µM) | 0.5 µg/mL (≈ 0.607 µM) | 1.55
3 | CCCCCc1cn(CCCNCc2c3c(O)c4c(O)c(C)c5c(c4c2O)C(=O)[C@@](C)(O/C=C/[C@H](OC)[C@@H](C)[C@@H](OC(C)=O)[C@H](C)[C@H](O)[C@H](C)[C@@H](O)[C@@H](C)/C=C/C=C(/C)C(=O)N3)O5)nn1 | 1 µg/mL (≈ 1.1 µM) | > 1 µg/mL | 1 µg/mL (≈ 1.1 µM) | > 1 µg/mL | 0.5 µg/mL (≈ 0.552 µM) | 0.5 µg/mL (≈ 0.552 µM) | > 1 µg/mL | > 1 µg/mL | < 10 µg/mL | > 1 µg/mL | > 1 µg/mL | 0.5 µg/mL (≈ 0.552 µM) | 3.42
4 | CO[C@H]1/C=C/O[C@@]2(C)Oc3c(C)c(O)c4c(O)c(c(/C=N/N5CCN(C)CC5)c(O)c4c3C2=O)NC(=O)/C(C)=C\C=C\[C@H](C)[C@H](O)[C@@H](C)[C@@H](O)[C@@H](C)[C@H](OC(C)=O)[C@@H]1C [RIFAMPIN] | 0.008 µg/mL (≈ 0.00972 µM) | > 1 µg/mL | 0.008 µg/mL (≈ 0.00972 µM) | 1 µg/mL (≈ 1.22 µM) | 0.004 µg/mL (≈ 0.00486 µM) | 0.004 µg/mL (≈ 0.00486 µM) | 0.016 µg/mL (≈ 0.0194 µM) | > 1 µg/mL |  | > 1 µg/mL | > 1 µg/mL | 0.005 µg/mL (≈ 0.00608 µM) | 1.66
5 | CO[C@H]1/C=C\O[C@@]2(C)Oc3c(C)c(O)c4c(O)c(c(CNC5CCN(Cc6ccccc6)CC5)c(O)c4c3C2=O)NC(=O)/C(C)=C\C=C/[C@H](C)[C@H](O)[C@@H](C)[C@@H](O)[C@@H](C)[C@H](OC(C)=O)[C@@H]1C | 0.125 µg/mL (≈ 0.139 µM) |  | 0.125 µg/mL (≈ 0.139 µM) |  | 0.06 µg/mL (≈ 0.0667 µM) | 0.03 µg/mL (≈ 0.0333 µM) | 0.25 µg/mL (≈ 0.278 µM) |  | 150 µg/mL (≈ 167 µM) |  |  | 0.005 µg/mL (≈ 0.00556 µM) | 2.05
6 | CCCc1cn(CCN2Cc3c4c(O)c5c(O)c(C)c6c(c5c3O)C(=O)[C@@](C)(O/C=C/[C@H](OC)[C@@H](C)[C@@H](OC(C)=O)[C@H](C)[C@H](O)[C@H](C)[C@@H](O)[C@@H](C)/C=C/C=C(/C)C2=N4)O6)nn1 | > 1 µg/mL | > 1 µg/mL | 1 µg/mL (≈ 1.18 µM) | > 1 µg/mL | > 1 µg/mL | > 1 µg/mL | > 1 µg/mL | > 1 µg/mL | < 10 µg/mL | > 1 µg/mL | > 1 µg/mL | 1 µg/mL (≈ 1.18 µM) | 3.13
7 | CO[C@H]1/C=C/O[C@@]2(C)Oc3c(C)c(O)c4c(O)c5c(c(O)c4c3C2=O)CN(Cc2cn(CN3C(=O)c4ccccc4C3=O)nn2)C(=N5)/C(C)=C\C=C\[C@H](C)[C@H](O)[C@@H](C)[C@@H](O)[C@@H](C)[C@H](OC(C)=O)[C@@H]1C | > 1 µg/mL | > 1 µg/mL | 1 µg/mL (≈ 1.05 µM) | > 1 µg/mL | > 1 µg/mL | > 1 µg/mL | > 1 µg/mL | > 1 µg/mL | < 10 µg/mL | > 1 µg/mL | > 1 µg/mL | 0.5 µg/mL (≈ 0.527 µM) | 3.26
8 | CO[C@H]1/C=C/O[C@@]2(C)Oc3c(C)c(O)c4c(O)c(c(CNCc5cn(CN6C(=O)c7ccccc7C6=O)nn5)c(O)c4c3C2=O)NC(=O)/C(C)=C\C=C\[C@H](C)[C@H](O)[C@@H](C)[C@@H](O)[C@@H](C)[C@H](OC(C)=O)[C@@H]1C | 1 µg/mL (≈ 1.03 µM) | > 1 µg/mL | 1 µg/mL (≈ 1.03 µM) | > 1 µg/mL | 0.5 µg/mL (≈ 0.517 µM) | 0.5 µg/mL (≈ 0.517 µM) | > 1 µg/mL | > 1 µg/mL | < 10 µg/mL | > 1 µg/mL | > 1 µg/mL | 0.25 µg/mL (≈ 0.259 µM) | 2.24
9 | CO[C@H]1/C=C/O[C@@]2(C)Oc3c(C)c(O)c4c(O)c(c(CNCCN(C)C)c(O)c4c3C2=O)NC(=O)/C(C)=C\C=C\[C@H](C)[C@H](O)[C@@H](C)[C@@H](O)[C@@H](C)[C@H](OC(C)=O)[C@@H]1C | 1 µg/mL (≈ 1.25 µM) | > 1 µg/mL | 1 µg/mL (≈ 1.25 µM) | > 1 µg/mL | 0.5 µg/mL (≈ 0.627 µM) | 0.5 µg/mL (≈ 0.627 µM) | > 1 µg/mL | > 1 µg/mL | 320 µg/mL (≈ 401 µM) | > 1 µg/mL | > 1 µg/mL | > 1 µg/mL | 1.48
10 | CO[C@H]1/C=C/O[C@@]2(C)Oc3c(C)c(O)c4c(O)c(c(C=O)c(O)c4c3C2=O)NC(=O)/C(C)=C\C=C\[C@H](C)[C@H](O)[C@@H](C)[C@@H](O)[C@@H](C)[C@H](OC(C)=O)[C@@H]1C | > 1 µg/mL | > 1 µg/mL | > 1 µg/mL | > 1 µg/mL | > 1 µg/mL | > 1 µg/mL | > 1 µg/mL | > 1 µg/mL | 100 µg/mL (≈ 138 µM) | > 1 µg/mL | > 1 µg/mL | > 1 µg/mL | 1.71
11 | CO[C@H]1/C=C/O[C@@]2(C)Oc3c(C)c(O)c4c(O)c(c(CNCCCN5CCN(CCCNCc6c7c(O)c8c(O)c(C)c9c(c8c6O)C(=O)[C@@](C)(O/C=C/[C@H](OC)[C@@H](C)[C@@H](OC(C)=O)[C@H](C)[C@H](O)[C@H](C)[C@@H](O)[C@@H](C)/C=C/C=C(/C)C(=O)N7)O9)CC5)c(O)c4c3C2=O)NC(=O)/C(C)=C\C=C\[C@H](C)[C@H](O)[C@@H](C)[C@@H](O)[C@@H](C)[C@H](OC(C)=O)[C@@H]1C | > 1 µg/mL | > 1 µg/mL | > 1 µg/mL | > 1 µg/mL | > 1 µg/mL | > 1 µg/mL | > 1 µg/mL | > 1 µg/mL | < 10 µg/mL | > 1 µg/mL | > 1 µg/mL | > 1 µg/mL | 3.83
12 | CO[C@H]1/C=C/O[C@@]2(C)Oc3c(C)c(O)c4c(O)c(c(CNCCCn5ccnc5)c(O)c4c3C2=O)NC(=O)/C(C)=C\C=C\[C@H](C)[C@H](O)[C@@H](C)[C@@H](O)[C@@H](C)[C@H](OC(C)=O)[C@@H]1C | 0.5 µg/mL (≈ 0.599 µM) | > 1 µg/mL | 0.5 µg/mL (≈ 0.599 µM) | > 1 µg/mL | 0.5 µg/mL (≈ 0.599 µM) | 0.25 µg/mL (≈ 0.299 µM) | 1 µg/mL (≈ 1.2 µM) | > 1 µg/mL | 330 µg/mL (≈ 395 µM) | > 1 µg/mL | > 1 µg/mL | 1 µg/mL (≈ 1.2 µM) | 1.78
